One molecule from US20220047476A1, “A METHOD FOR FIGHTING FEMALE BODY ODORS” (SYMRISE AG, priority 2018, published 2022) can be followed below.

A short description of data set [1]: Malodor reduction via sensory testing, feminine (vaginal) odor model. More on the design: species or system human. The note with it: trained female panel N=9, 1=no odor to 10=strongest imaginable, averaged, malodor only 6.0, 0.0% control 5.3. The protocol: (§1) A trained sensory panel consisting of females, (N=9) ages 40-55 years old evaluated the samples. Panelists are regularly trained on fragrance and malodor intensity scoring and must pass routine screening and calibration tests to remain on the panel. Panelist onboarding and orientation was performed following ASTM Committee E-18 on Sensory Evaluation of Materials and Products, Guidelines for the Selection and Training of Sensory Panel Members (ASTM STP758, American Society for Testing and Materials, 1981, pp. 1-35). Panelists were selected based on health, interest, availability, descriptive and scaling ability, olfactory acuity, attitude and personality. Panelists are introduced to intensity measurement using selected intensity standards and exercised in the use of the scaling system to quantify intensity.
(§2) Training and evaluation was performed for six weeks following orientation. Each panelist completed practice sessions where they were exposed to different types of odors (malodor, fragrance, etc.) and different substrates (fabric, clothing, blotter cards, jars, etc.). Panelist inclusion was dependent upon panel administrator discussions, specific response evaluation, and comparison to standards.
(§3) In this example, feminine wash was formulated with various concentrations of 5-methyl-2-(1-methylethyl)-cyclohexanol acetate, as shown in Table 1 below. A sample without of 5-methyl-2-(1-methylethyl)-cyclohexanol acetate was used as a control.
(§4) The sweat malodor model is comprised of malodors including 3-methyl-2-hexenoic acid and 3-mercapto-3-methyl-1-hexanol. The feminine odor model contains acetic acid, 2-methyl-butyric acid, valeric acid and trimethyl amine. The trained panelists subjectively evaluated the samples using a 10-point scoring scale (1=no odor to 10=strongest imaginable). Panelists are first shown the malodor only sample as a reference, and asked to rate its odor intensity. Panelists are then shown the test samples in a blinded fashion labelled with a 3 digit code. There is a 45 second wait time between samples to prevent olfactive fatigue. […]

A short description of data set [2]: Malodor reduction via sensory testing, sweat malodor model. More on the design: species or system human. The note with it: trained female panel N=9, 1=no odor to 10=strongest imaginable, averaged, malodor only 5.8, 0.0% control 5.1. The procedure:
as §1, §2, §3, §4

A short description of data set [3]: Vapor pressure reduction: malodors in closed flask headspace, cold finger collection, GC FID. The data set is classed as physicochemical. Particulars: with 1 g active in separate dish, sealed 500 mL flask, four hours, cold finger 10° C. The procedure:
Two 500 mL Erlenmeyer flasks were prepared with a blend of five malodor substances (200 mg total; indole, methyl phenyl acetate, skatol, p-cresyl isovalerate, isoamyl phenylacetate) in a small dish. To one flask, in a separate small dish, was added 1 g of 5-methyl-2-(1-methylethyl)-cyclohexanol acetate. Each flask was sealed with a cold finger through which water at 10° C. was passed. After four hours, the flasks were opened and the cold fingers were washed with diethyl ether. This eluent is representative of the headspace above the sample, and quantifies the malodor concentration in the air. The collected diethyl ether fractions were made to a standard volume and analyzed by gas chromatography (GC FID). This experiment is meant to analyze the interaction of malodor with 5-methyl-2-(1-methylethyl)-cyclohexanol acetate in a way that mimics a consumer's experience.

Turning to `CC(=O)O[C@@H]1C[C@H](C)CC[C@H]1C(C)C` [5-methyl-2-(1-methylethyl)-cyclohexanol acetate], the figures for the “Feminine (Vaginal) Malodor intensity rating from 1 to 10” value in data set [1] (0.1% active in feminine wash), in data set [1] (0.2% active in feminine wash) and in data set [1] (0.5% active in feminine wash) were 4.5, 3.3 and 2.6, respectively. In addition, the “Sweat Malodor intensity rating from 1 to 10” value is on record as 4.8 in data set [2] (0.1% active in feminine wash), 3.0 in data set [2] (0.2% active in feminine wash) and 2.2 in data set [2] (0.5% active in feminine wash). Moreover, in data set [3] (without active 0.06), the “Relative Amount of Malodor: skatol” value came to 0.0003. Further, the “Relative Amount of Malodor: p-cresyl isovalerate” value in data set [3] (without active 0.10) is reported as 0.0002. Further, in data set [3] (without active 1.20), the “Relative Amount of Malodor: isoamyl phenylacetate” value is recorded as 0.0000. In data set [3] (without active 1.30), the “Relative Amount of Malodor: indole” value worked out at 0.0300. In data set [3] (without active 1.50), the “Relative Amount of Malodor: methyl phenyl acetate” value is listed as 0.0000.
